What was measured:
[1] = Acrylamide quenching to determine aggregation in aqueous medium; format: physicochemical; conditions: acrylamide quenching of tyrosine fluorescence, Stern-Volmer plot
Description: The aggregation of molecules in aqueous medium, as a result of poor solubility, for example, is a critical parameter in pharmacology. […] For this purpose, acrylamide quenching studies were performed (Lakowicz J. R 1999. Principles of Fluorescence spectroscopy, Second Edition ed., Kluwer Academic/Plenum Publishers, New York; Coutinho A and Prieto M. 1993. Ribonuclease T1 and alcohol dehydrogenase fluorescence quenching by acrylamide: A laboratory experiment for undergraduate students J. Chem. Education, 70: 425-428).
Acrylamide is an aqueous quencher of the tyrosine fluorescence. When fluorescent peptides aggregate, the phenolic groups tend to cluster and remain inaccessible to hydrophilic molecules. Conversely, when no aggregation occurs, all tyrosine residues are exposed to the solvent and, therefore, accessible to the contact and quenching by acrilamide.
The fluorescence spectra were not concentration-dependent (not shown) and there was a linear dependence of fluorescence intensity on concentration (not shown).

[2] = test system: Tau P301L ([…] I P301L cells); assay: Yeast platform DISAGGREGATOR I P301L, ER stress GFP reporter (target induced); format: cell-based; conditions: for decrease of the fluorescent signal: first assay (FIG. 9); for decrease of the stress: second assay (FIG. 11)
Description: Cells were grown in 200 microlitre minimum medium supplemented with 20 g/L galactose, at 30° C., with agitation at 600 rpm;
KTP-NH2 was further tested on a general inducer of the same pathological mechanism to assess its specificity for tau and compared with two control KTP derivatives which were tested on the same platform.
The Endoplasmic Reticulum (ER) fulfils multiple cellular functions, the main one being the proper folding of proteins destined for secretion or display on the cell surface. Many disturbances cause accumulation of unfolded proteins in the ER, triggering an evolutionarily conserved response, termed the unfolded protein response (UPR) or ER stress. The initial intent of the UPR is to adapt to the changing environment, and re-establish normal ER function.
In parallel, the yeast platform DISAGGREGATOR I P301L comprises the same ER stress element operably linked to the same GFP reporter element and additionally expresses the exogenous protein TAU P301L which induces ER stress.
(§1) Using these two platforms in parallel, it is possible to identify compounds that reduce specifically the stress induced by the TAU P301L protein, and other compounds that are simply general ER stress reducers.
DISAGGREGATOR I P301L cells were grown in 200 μl medium containing KTP-NH2 or control compounds (referred to as control 1 and control 2) at a concentration of 10 μM and 100 μM. No effect on the fluorescence could be detected for the control compounds, meaning that the two compounds are inefficient to reduce the stress triggered by the TAU P301L protein (FIGS. 7 and 8).
(§2) DISAGGREGATOR I P301L cells were grown in 200 μl medium containing the KTP-NH2 at a concentration of 10 μM and 100 μM. DISAGGREGATOR I cells were grown in the same condition but subjected to an addition of 1 μg/mL of tunicamycin in order to induce ER stress chemically.
The inventors created a yeast-based screening application for the detection of compounds that act as modulators of the toxicity (neurodegeneration) for neurons (not pain) induced by the expression of tau P301L, a pathological isoform of tau protein. This yeast-based application is designated as DISAGGREGATOR I P301L and provides a valuable tool for the high throughput screening of tau modulators. It is a model-based system where the cellular environment produced upon P301L expression is recapitulated and cell toxicity is measured and quantified. Compounds that have the potential to modulate pathological pathways activated by the expression of P301L are detected through a reduction in the cytotoxic readout. Tau protein is expressed in central nerve cells and, consequently, tauopathies are diseases of the central nervous system. This implies that a therapeutic compound for tauopathies must be able to access the central nervous system by penetrating the blood-brain barrier. We tested KTP-NH2 in the DISAGGREGATOR P301L system. Results were very impressive for KTP-NH2 to be used as a drug for tau-associated pathologies. Therefore, after obtaining the proof of concept confirmation of KTP-NH2 potential as a tau modulator, we developed a series of derivatives with a higher plasma-stability. The present invention protects the use of KTP-NH2 and its derivatives in the treatment of tau-induced cytotoxicities.

[3] = test system: […] I cells, tunicamycin-induced ER stress; assay: Yeast platform DISAGGREGATOR I, ER stress GFP reporter (chemically induced with tunicamycin); format: cell-based; conditions: 1 μg/ml tunicamycin
Description: Cells were grown as described for FIG. 7;
The yeast platform DISAGGREGATOR I comprises an ER stress element operably linked to a GFP reporter element and is used to determine the level of ER stress in cells during growth or triggered by specific ER stress inducers, e.g. tunicamycin. Tunicamycin is known to inhibit the glycosylation of nascent polypeptides, resulting in misfolded proteins, that are retained in the endoplasmic reticulum and therefore triggering ER stress.
as §1, §2

rats (Wister, male) [4] = assay: In vivo toxicology: hepatotoxicity markers in the plasma; set-up: species or system rat; conditions: i.p. once a day 3.23 mg-100 g body mass, seven days
Description: (§3) The toxicological studies were carried out with rats (Wister, male) injected i.p. once a day with 3.23 mg-100 g body mass during seven days.
Liver is the major organ of toxicity. Blood samples were collected and the following hepatotoxicity markers were assayed in the plasma: • Alanine transaminase (ALT), • Aspartate transaminase (AST) • Alkaline phosphatase (ALP) • Total bilirubin (TBIL) • Gamma glutamyl transpeptidase (GGT)
Increased levels of the liver enzymes ALT, AST, ALP and GGT in the plasma indicate lesions in liver. Increased RBL would be a sign of faulty bilirubin production/hemolysis and/or bilirubin metabolism (in liver).

rats (Wister, male) [5] = assay: In vivo toxicology: antioxidant capacity in blood samples; set-up: species or system rat; conditions: i.p. once a day 3.23 mg-100 g body mass, seven days
Description: as §3
Metabolization of KTP-NH2 in the organism might lead to an increase in its metabolite products and to the subsequent production of reactive oxygen species (ROS). As increased ROS levels are potentially harmful.
KTP-NH2 potential to induce changes in antioxidant capacities in the plasma of animals was explored. Total antioxidant capacity of lipid-soluble (ACL) and water-soluble (ACW) constituents were determined.

[6] = 100 μM, average of two experiments (FIG. 13)

N=C(N)NCCCC(NC(=O)C(N)Cc1ccc(O)cc1)C(N)=O [KTP-NH2, L-Tyr-L-Arg-NH2]
aggregation in aqueous medium [1]: No evidence was found for aggregation | effect on the fluorescence (ER stress triggered by TAU P301L) ([2]; 10 μM and 100 μM): decreased the fluorescence signal | decrease of the fluorescent signal ([2]; 10 μM): 40% | decrease of the stress ([2]; 10 μM): 50% | residual ER stress signal, of the maximum level without compound [2, 6]: ~40% | decrease of the fluorescent signal ([2]; 100 μM): 65% | decrease of the stress ([2]; 100 μM): 50% | action on ER stress chemically induced with tunicamycin ([3]; 10 and 100 μM, first assay (FIG. 10)): almost no action | decrease of stress chemically induced with tunicamycin ([3]; second assay (FIG. 12)): did not significantly decrease | residual ER stress signal, of the maximum level without compound [3, 6]: 80% | GGT in plasma (rats (Wister, male) [4]): below the detection limit | hepatotoxicity markers in plasma (AST, ALT, ALP, total bilirubin) versus control animals (rats (Wister, male) [4]): no toxic effects were detected | basal antioxidant capacity in plasma (water-soluble ACW and lipid-soluble ACL constituents) (rats (Wister, male) [5]): does not induce significant modifications
